Among the data in patent US20230391748A1, “BICYCLIC INHIBITORS OF IRAK” (priority 2022, published 2023) are IC50 values, retold here.

One experiment deals with IRAK4 (Homo sapiens (Human), UniProt Q9NWZ3). The experiment can be described thus: IRAK4 ADP-Glo Assay. The class given is biochemical. The following applies: MBP substrate. Here is the method:
The ADP-Glo™ reagents were thawed at ambient temperature. The Kinase Detection Reagent was prepared by mixing kinase detection buffer with the lyophilized kinase detection substrate, and set aside.
A stock volume of 5× Reaction Kinase Buffer was made with a final concentration of 100 mM MgCl2, 200 mM Tris-HCl, and 0.5 mg/ml of BSA, in distilled H2O with a final pH7.4. A 2× working stock volume of Reaction Kinase Buffer was made containing a final concentration of 100 μM DTT.
The components of IRAK4 Enzyme were thawed on ice. Diluted IRAK4 in 1× Kinase Reaction Buffer (diluted from 2× buffer) was prepared at 5.0 ng/μl.
Then diluted 1:5 in 2× Reaction Buffer in a 96 well plate. 1.0 μl was transferred to a 384 well plate in duplicate. […] 1 μl of 1 mg/ml stock solution of MBP substrate was added NOTE: MBP can be combined with ATP mix with equal volume and then added at 2 μl/well. Final reaction volume was 5 μl.
The plate was centrifuged and the reaction mixture was incubated at room temperature for 60 minutes or at 30° C. for 30 minutes.
The reaction was terminated and the remaining ATP was depleted by adding 5 μl of ADP-Glo™ Reagent. The 384-well plate was centrifuged and then the reaction mixture was incubated for another 40 minutes at ambient temperature.
10 μl of the Kinase Detection Reagent was added. The plate was centrifuged and then the reaction mixture was incubated for another 30 minutes at ambient temperature.
The 384-well reaction plate was read using the WALLAC plate reader (Luminescence 0.1s).
In general terms: ADP-Glo turns the ADP formed in a reaction into a luminescent signal.

The next experiment concerns TNF-α in human PBMCs. The experiment can be described thus: R848-induced TNF-α in human PBMCs Assay. The class given is cell-based. The following applies: PBMC. Here is the method:
R848-induced TNF-α in human PBMCs Assay
100 μL/well PBMCs (200K/well) were seeded in 96-well flat-bottom tissue culture plates. […] 100 μL/well 2× compound was added to the PBMC in the tissue culture plates. […] The cells were stimulated with R848 for an additional 4 hours at 37° C., 5% CO2. The supernatant (100 μl/well) was harvested to measure TNF-α by ELISA. […] The chemiluminescence values were entered into Athena (Rigel) for curve fitting, EC50 calculation, and database storage.
(§1) TNF-α ELISA was performed according to the vendor protocol, using 96 Well Flat-Bottom, MaxiSorp Black Immuno plates and 100 μL/well of supernatant. The plates were developed using 100 μL/well of Super Signal ELISA Pico Chemiluminescent Substrate. The plates were read with a luminometer, and the chemiluminescence values were entered into Athena (Rigel) for curve fitting, EC50 calculation, and database storage.

Experiment [1] deals with TNF-α in Human Primary Monocyte-Derived Dendritic Cells. The experiment can be described thus: Gardiquimod-Induced TNF-α in Human Primary Monocyte-Derived Dendritic Cells. The following applies: Dendritic cell, IFNγ-primed monocyte-derived dendritic cells, 4 μg/ml Gardiquimod, 6 hours, TNF-α ELISA, read-out: TNFα (DC, GARD) (IC50). The class given is cell-based. The protocol: Gardiquimod-Induced TNF-α in Human Primary Monocyte-Derived Dendritic Cells
After 2 hours, the media including floating cells was carefully removed and 12 ml of fresh RPMI media (10% FBS) containing GM-CSF (100 ng/ml) and IL-4 (20 ng/ml) were added to the adherent monocytes. The monocytes were allowed to differentiate for 7 days at 37° C., 5% CO2 for 7 days, supplementing with fresh GM-CSF and IL-4 after 3 days. The differentiated dendritic cells (DC) were harvested by centrifugation (1200 rpm/5 min). The DCs were primed at 37° C., 5% CO2 for 24 hours with 50 ng/ml IFN-γ (1000 U/ml) at 50K/well in 100 μl/well of fresh RPMI media (10% FBS) in a white clear bottom 96 well plate.
The primed DCs were pre-incubated with test compound for 1 hour at 37° C., 5% CO2 by adding 100 μl of RPMI media containing 2× concentrated test compound per well (0.5% final DMSO concentration).
DCs were stimulated with Gardiquimod (10 μl per well of 20× concentrated Gardiquimod solution in RPMI media to give a final concentration of 4 μg/ml) at 37° C., 5% CO2 for an additional 6 hours. The supernatant (100 μl/well) was harvested to measure TNF-α by ELISA. […] The chemiluminescence values were entered into Athena (Rigel) for curve fitting, EC50 calculation, and database storage.
as §1

The next experiment concerns IL23p19 in THP-1 Cells. The experiment can be described thus: LPS Induced IL23p19 in THP-1 Cells (with IFNγ Primed) Assay. Format: cell-based. The following applies: Homo sapiens. Here is the method: LPS Induced IL23p19 in THP-1 Cells (with IFNγ Primed) Assay
On day 1, 50K/well THP-1 cells were seeded and primed with IFNγ (50 ng/mL) in 384-well plates for about 18 hours in RPMI media with 10% FBS. […] 50 μL/well 2× compound was added to 50 μL/well THP-1 cells (with IFNγ primed) in duplicate in 384 well tissue culture plates. […] Day 3, after stimulation for 18 hours at 37° C., 5% CO2, the assay plate was centrifuged and 70 μL/well supernatant was harvested. IL-23p19 protein in 70 µL/well of supernatant was measured by sandwich ELISA, and 25 μl/well Cell Titer Glo reagent was added to the remaining cells to measure compound toxicity.
Maxisorp immuno ELISA plates were pre-coated with 25 μL/well of anti-IL-23p19 capture antibody (2.5 ug/mL) in PBS overnight at room temperature. […] 25 μL/well of biotin labeled anti-IL-12(p40/p70) detection antibody (100 ng/mL) in PBS with 1% BSA was added and the plates were incubated at room temperature for 2 hours with shaking. […] The plates were read with a luminometer, and the chemiluminescence values were entered into Athena (Rigel) for curve fitting, EC50 calculation, and database storage.

The mark [2] stands for this setting: Homo sapiens, 4 h, read-out: TNFα (PBMC, R848) (IC50, μM).
The mark [3] stands for this setting: THP-1, 18 h, read-out: IL23 (THP, LPS) (IC50, μM).

Structures are written as SMILES. Like-named read-outs stand apart in the source and are kept apart here.

IRAK4, sequence (Q9NWZ3 whole entry): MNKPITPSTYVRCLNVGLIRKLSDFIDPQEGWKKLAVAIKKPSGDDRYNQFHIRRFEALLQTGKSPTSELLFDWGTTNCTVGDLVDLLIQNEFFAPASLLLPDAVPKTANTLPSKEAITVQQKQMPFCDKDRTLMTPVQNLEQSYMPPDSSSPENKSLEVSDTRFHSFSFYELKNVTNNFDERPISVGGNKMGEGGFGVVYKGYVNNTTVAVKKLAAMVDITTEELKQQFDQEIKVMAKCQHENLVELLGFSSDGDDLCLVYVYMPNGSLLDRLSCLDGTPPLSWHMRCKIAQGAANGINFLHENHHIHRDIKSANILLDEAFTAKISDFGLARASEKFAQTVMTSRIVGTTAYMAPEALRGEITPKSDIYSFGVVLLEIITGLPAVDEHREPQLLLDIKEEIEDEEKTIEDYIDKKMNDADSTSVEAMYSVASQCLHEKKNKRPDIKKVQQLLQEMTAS

For orientation: IC50 means the concentration that inhibits the measured activity by half. `CC(C)Oc1cc2c(OC[C@@H]3CCC(=O)N3)ncc(C#CC3(O)CCN(C)CC3)c2cc1C(N)=O` [Compound I-14, (S)-4-((4-hydroxy-1-methylpiperidin-4-yl)ethynyl)-7-isopropoxy-1-((5-oxopyrrolidin-2-yl)methoxy)isoquinoline-6-carboxamide]: the concentration for half-maximal inhibition (IC50) is 5.4 nM against IRAK4, 3.93 µM in the experiment on TNF-α in human PBMCs (setting [2]) and 7870 nM in experiment [1].
Regarding `CC(C)Oc1cc2c(OC[C@@H]3CCC(=O)N3)ncc(C#CC3CCN(C(C)C)CC3)c2cc1C(N)=O` [Compound I-19, (S)-7-isopropoxy-4-((1-isopropylpiperidin-4-yl)ethynyl)-1-((5-oxopyrrolidin-2-yl)methoxy)isoquinoline-6-carboxamide], the IC50 on IRAK4 amounted to 6.7 nM; with IL23p19 in THP-1 Cells (setting [3]) it was 0.124 µM; in experiment [1], 618 nM.
As for `CC(C)Oc1cc2c(OC[C@@H]3CC(F)(F)C(=O)N3)ncc(C#CC3CN(C)C3)c2cc1C(N)=O` [Compound I-64, (S)-1-((4,4-difluoro-5-oxopyrrolidin-2-yl)methoxy)-7-isopropoxy-4-((1-methylazetidin-3-yl)ethynyl)isoquinoline-6-carboxamide], the half-inhibitory concentration (IC50) on IRAK4 came to 3.6 nM; in the experiment on TNF-α in human PBMCs (setting [2]) it was 0.0215 µM; in experiment [1], 28.6 nM.
For the compound `CC[C@@H]1[C@H](F)C(=O)N[C@@H]1COc1ncc(C#CC2CCOCC2)c2cc(C(N)=O)c(OC(C)C)cc12` [Compound I-79, 1-(((2S,3S,4S)-3-ethyl-4-fluoro-5-oxopyrrolidin-2-yl)methoxy)-7-isopropoxy-4-((tetrahydro-2H-pyran-4-yl)ethynyl)isoquinoline-6-carboxamide], the IC50 against IRAK4 is 18.1 nM; in the experiment on IL23p19 in THP-1 Cells (setting [3]) it was 0.0072 µM.
On the same counts, the results for `CCO[C@H]1CC[C@H](C#Cc2cnc(OC[C@H]3NC(=O)[C@@H](F)[C@H]3CC)c3cc(OC(C)C)c(C(N)=O)cc23)CC1` [Compound I-80, 4-(((1r,4S)-4-ethoxycyclohexyl)ethynyl)-1-(((2S,3S,4S)-3-ethyl-4-fluoro-5-oxopyrrolidin-2-yl)methoxy)-7-isopropoxyisoquinoline-6-carboxamide] are 390 nM and 0.0105 µM.
Regarding `CCO[C@H]1CC[C@@H](C#Cc2cnc(OC[C@H]3NC(=O)[C@@H](F)[C@H]3CC)c3cc(OC(C)C)c(C(N)=O)cc23)CC1` [Compound I-81, 4-(((1s,4R)-4-ethoxycyclohexyl)ethynyl)-1-(((2S,3S,4S)-3-ethyl-4-fluoro-5-oxopyrrolidin-2-yl)methoxy)-7-isopropoxyisoquinoline-6-carboxamide], the IC50 against IRAK4 turned out to be 463 nM; in the experiment on IL23p19 in THP-1 Cells (setting [3]) it was 0.0163 µM.
In the case of `CC(C)Oc1cc2c(O[C@@H]3CCCN(C(=O)CC#N)C3)ncc(C#CC3(O)CCNCC3)c2cc1C(N)=O` [Compound I-93, (R)-1-((1-(2-cyanoacetyl)piperidin-3-yl)oxy)-4-((4-hydroxypiperidin-4-yl)ethynyl)-7-isopropoxyisoquinoline-6-carboxamide], the IC50 against IRAK4 was determined as 23 nM.
As for `CC(C)Oc1cc2c(O[C@@H]3CCCN(C(=O)CC#N)C3)ncc(C#CC3(O)CCN(C)CC3)c2cc1C(N)=O` [Compound I-94, (R)-1-((1-(2-cyanoacetyl)piperidin-3-yl)oxy)-4-((4-hydroxy-1-methylpiperidin-4-yl)ethynyl)-7-isopropoxyisoquinoline-6-carboxamide], the results for the concentration for half-maximal inhibition (IC50) at IRAK4, with IL23p19 in THP-1 Cells (setting [3]) and with TNF-α in human PBMCs (setting [2]) were 56.8 nM, 18.8 µM and 8.08 µM, respectively.
As to `CC(C)Oc1cc2c(O[C@@H]3CCCN(C(=O)OC(C)(C)C)C3)ncc(-c3cnn(C4CC4)c3)c2cc1C(N)=O` [Compound I-107, tert-butyl (R)-3-((6-carbamoyl-4-(1-cyclopropyl-1H-pyrazol-4-yl)-7-isopropoxyisoquinolin-1-yl)oxy)piperidine-1-carboxylate], the 50% inhibitory concentration (IC50) with IL23p19 in THP-1 Cells (IFNγ-primed THP-1 cells, 1 μg/mL LPS, 18 hours, IL-23p19 ELISA, read-out: IL23 (THP, LPS) (IC50)) was 103 µM; in the experiment on TNF-α in human PBMCs (human PBMCs, 65 ng/mL R848, 4 hours, TNF-α ELISA, read-out: TNFα (PBMC, R848) (IC50)) it was 38.2 µM.
